Source: patent US20130101972A1, “METHODS FOR REDUCING RISK” (SANOFI, priority 2009, published 2013)

Legend:
Format in all cases: in vivo, human
[1] = test system: patients with AF/AFL; assay: Pooled safety analysis of 5 controlled AF/AFL clinical studies, dronedarone 400 mg BID versus placebo
Text: (§1) The safety of dronedarone has been evaluated in a clinical development program that included, as of 12 Mar. 2008, a total of 8276 treated patients/healthy subjects in 55 completed studies. Of these, 4794 patients/healthy subjects received dronedarone.
Patients with the claimed indication of AF/AFL were included in 5 controlled clinical studies representing 88% (6285 patients) of the exposed patient population (7109 patients). Other patient populations, representing 14% (1028 patients) of the exposed patient population, were included in 13 clinical studies in patients with other cardiac conditions and patients with renal and hepatic impairment.
The safety profile of dronedarone 400 mg BID is derived from analysis of the 3282 patients in the 5 AF/AFL studies who were treated with dronedarone 400 mg BID and the 2875 who received placebo. The mean duration of exposure across the 5 studies in the dronedarone 400 mg BID group was 13.5 months, representing total exposure of 3684 patient-years. In the ATHENA study, the maximum follow-up was 30 months.
Discontinuation due to adverse reactions occurred in 11.8% of patients in the dronedarone 400 mg BID group and 7.7% in the placebo-treated group. The most common adverse events causing discontinuation of therapy with dronedarone 400 mg BID were gastrointestinal disorders (3.2% of patients versus 1.8% in the placebo group).

[2] = test system: patients with severe heart failure; assay: ANDROMEDA study, placebo-controlled, in patients with left ventricular dysfunction hospitalized with symptomatic HF; settings: versus placebo, patients with severe heart failure requiring recent hospitalization or referral
Protocol: The present invention relates to the following identified and potential risk of dronedarone: mortality in patients with severe heart failure (HF) during treatment. The study referred to as ANDROMEDA was conducted in 627 patients with left ventricular dysfunction, hospitalized with symptomatic HF, requiring treatment with a diuretic, who have had within the last month at least 1 episode of dyspnea or fatigue at rest, or on slight exertion. […] The study was stopped prematurely due to an observed imbalance of deaths in the dronedarone group [n=25 versus 12 (placebo), p=0.027]. The main reason for death was worsening heart failure. Clinical judgment of the physician should guide the management plan of each patient based on individual benefit/risk assessment.

[3] = test system: patients with atrial fibrillation (AF) or atrial flutter (AFL) or a history of AF or AFL; assay: Clinical efficacy in patients with AF or AFL: cardiovascular hospitalization; settings: 400 mg twice daily (BID)
Text: as §1

`CCCCc1oc2ccc(NS(C)(=O)=O)cc2c1C(=O)c1ccc(OCCCN(CCCC)CCCC)cc1` [dronedarone, 2-n-butyl-3-[4-(3-di-n-butylaminopropoxy)benzoyl]-5-methylsulfonamido-benzofuran] was tested, and the “Most frequent investigation abnormalities” value ([1]; dronedarone 400 mg BID) was “QT prolongation and increase in serum creatinine”, the “Discontinuation due to adverse reactions” value ([1]; dronedarone 400 mg BID group, 5 AF/AFL studies, placebo 7.7%) was 11.8 % of patients and the “Most frequent clinical adverse reactions” value ([1]; dronedarone 400 mg BID, 5 studies) was “diarrhea, nausea and vomiting, fatigue, asthenia, bradycardia, and rashes”. For the same molecule, the “Gastrointestinal disorders causing discontinuation of therapy (most common adverse events causing discontinuation)” value ([1]; dronedarone 400 mg BID, placebo 1.8%) was 3.2 % of patients, the “Effect of intrinsic factors (race, gender, age) on incidence of any treatment-emergent adverse events” value ([1]; subgroup assessment) was “did not suggest any excess of adverse events in a particular subgroup” and the “Change in serum creatinine” value ([1]; within a week, does not reflect a change in underlying renal function) was “small change in serum creatinine”. The Increase in mortality [2] was “greater than two-fold increase in mortality” and the “Reduction of the risk of cardiovascular hospitalization” value [3] was “effective for reduction of the risk of cardiovascular hospitalization”.
